Key:
[1] = system: 31 of the 36 human monoaminergic receptors; assay: Functional activity at human monoaminergic receptors; conditions: 5-HT1A, 1B, 1D, 1E, 1F, 2B, 3, 4, 6A, 7A; adrenergic α1A, α1B, α1D, α2A, α2B, β2; dopamine D1-D4; histamine H1-H3
[2] = molecular target: dopamine receptors including the D2 and D4 receptors; assay: Affinity to dopamine receptors; assay type: binding
[3] = Clearance from in vitro human microsomes; assay type: in vitro ADME; conditions: read-out: clearance rate from in vitro human microsomes
[4] = Half-life upon oral administration to humans; conditions: human, in vivo
[5] = system: mice receiving ICV infusion of amyloid β protein fragment (25-35) or saline (sham); assay: Amphetamine-induced hyperactivity study with amyloid β protein; assay type: in vivo; conditions: pimavanserin 0.3 mg/kg, amphetamine 3 mg/kg, FIG. 8
Experimental: This study was conducted in acrylic chambers (42 cm×42 cm×30 cm) equipped with 16 infrared photobeams along each horizontal axis (front-to-back and side-to-side, from Accuscan Instruments, Inc. (Columbus, Ohio)). Subjects were mice receiving ICV infusion of amyloid β protein fragment (25-35) or ICV infusion of saline (sham) for 7-10 days.
An amphetamine-induced hyperactivity study was conducted on the subjects. Subjects were injected with amphetamine (3 mg/kg) or vehicle 15 minutes prior to entering motor activity chambers. Activity was measured as a total distance traveled (DT) in centimeters (cm) and was determined in 20 minute increments across a 60 minute session.
Activity was measured as a total distance traveled (DT) in centimeters (cm) and was determined in 20 minute increments across a 60 minute session.

[6] = system: mice with a deletion of the M1 muscarinic receptor (M1KO) or wild-type (WT) controls; assay: Hyperactivity study with M1 knock-out mice; assay type: in vivo
Experimental: A linear regression analysis was then conducted to determine the theoretical dose that would produce a 50% reduction of activity (ED50) and 95% confidence interval. Mice had no prior exposure to the chambers and each dose combination was tested in separate groups of mice.

[7] = system: amphetamine-induced hyperactivity in mice; assay: Amphetamine-induced hyperactivity with tacrine or xanomeline; assay type: in vivo; conditions: amphetamine 3 mg/kg, pimavanserin 0.03 mg/kg where combined
Experimental: This study was conducted in acrylic chambers (42 cm×42 cm×30 cm) equipped with 16 infrared photobeams along each horizontal axis (front-to-back and side-to-side, from Accuscan Instruments, Inc., Columbus, Ohio). […] Vehicle or a drug (either tacrine or xanomeline) was injected 30 minutes prior to entering activity chambers. Amphetamine (3 mg/kg) was injected into mice 15 minutes prior to entering motor activity chambers. Mice had no prior exposure to the chambers and each dose combination was tested in separate groups of mice.
Activity was measured as total distance traveled (DT) in centimeters and was determined across a 15 minute session. Dose response curves were constructed for the drug in the presence of either vehicle or a fixed dose of pimavanserin. In order to generate dose-response curves, raw DT data were converted to percent inhibition, % MPI=((DT drug or drug combination−DT amphetamine control)/(DT vehicle control−DT amphetamine control))*100. A linear regression analysis was then conducted to determine the theoretical dose that would produce a 50% reduction of activity (ED50) and 95% confidence interval.

C57 BK/6 mice = conditions: test phase, FIGS. 5 and 6
Experimental: Subjects were male, C57 BK/6 mice purchased from Harlan Laboratories, weighing 15-20 g upon arrival. Animals were housed 8 per cage with food and water available ad libitum. Animals were housed on a 12 hr light cycle (lights on 6 am) for 4-7 days prior to behavioral testing.
Novel object recognition (NOR) was conducted in a novel environment consisting of a white plastic tub measuring 45.7×33.7×19 cm. Prior to each trial the bottom of the tub was covered with a piece of plastic lined bench top paper. There were two sets of identical objects chosen so that when given an opportunity to explore, mice would evenly divide exploration time between the objects. “A” objects were yellow, ceramic, 12-sided ramekins measuring 4 cm high×7 cm diameter. “B” objects were 8×8×4 cm stainless steel, 4-sided ramekins.
At the beginning of each test day, animals were placed in groups of 6 into clean cages. […]
During the sample phase, two identical objects (“A” or “B”, objects described above) were placed into the NOR chamber. […] The time spent exploring at each position was recorded. Directly sniffing or touching the object was recorded as exploration. […]
The test phase was conducted one to two hours after the sample phase. […] The test sessions were recorded on video and scored by an observer blind to each subject's treatment condition. Any time spent directly sniffing or touching an object was counted as exploration. […]

[8] = cited from earlier work

functional activity (pEC50 or pKi) [1]	pKi to dopamine receptors including D2 and D4 [2]	microsomal CLint [3]	half-life [4]	Structure (SMILES)	distance traveled following amphetamine, amyloid β mice ([5]; amyloid β mice)	distance traveled following amphetamine, control mice ([5]; sham (control) mice)	amphetamine-induced activity, M1KO subjects ([6]; M1KO mice, amphetamine 3 mg/kg ip, FIG. 9)	amphetamine-induced activity, WT subjects ([6]; WT mice, amphetamine 3 mg/kg ip, FIG. 9)	percent inhibition of amphetamine-induced hyperactivity ([6]; as a function of pimavanserin dosage, FIG. 10)	locomotor activity, pimavanserin alone ([6]; no amphetamine, compared with vehicle controls, pimavanserin 0.03 or 0.3 mg/kg, FIG. 9)	total distance traveled ([7]; 15 minute session, FIGS. 1 and 3)	percent inhibition of amphetamine-induced hyperactivity ([7]; FIGS. 2 and 4)	percent of time spent exploring a novel object (C57 BK/6 mice)	patients with elevated liver transaminases [8]
< 6	< 6	< 10 µL/min/mg	~55 h	CC(C)COc1ccc(CNC(=O)N(Cc2ccc(F)cc2)C2CCN(C)CC2)cc1 [Pimavanserin, N-(1-methylpiperidin-4-yl)-N-(4-fluorophenylmethyl)-N′-(4-(2-methylpropyloxy)phenylmethyl)carbamide]	reversed the augmented locomotor response to amphetamine	did not reduce the hyperactivity induced by amphetamine	reversed the augmented amphetamine response	did not alter amphetamine-induced activity	increased the inhibition of amphetamine-induced hyperactivity	no significant effect on locomotor activity	–	–	–	–
–	–	–	–	Nc1c2c(nc3ccccc13)CCCC2 [tacrine]	–	–	–	–	–	–	total distance traveled decreased	greater inhibition of amphetamine-induced hyperactivity	also increased	about 30%

From patent US20090082388A1 (ACADIA PHARMACEUTICALS INC., priority 2007, published 2009)
